From patent EP2970215B1, “PYRROLIDINE DERIVATIVES, PHARMACEUTICAL COMPOSITIONS CONTAINING THEM, AND THEIR USE IN THERAPY” (AbbVie Deutschland GmbH & Co. KG, priority 2013, dated 2014) come the findings set out here.

The experiment deals with T1, human GlyT1c transporter (Homo sapiens, UniProt P48067).
T1 construct: expressed in transfected cells; host or cells: CHO cells (recombinant; line hGlyT1c_5_CHO is named for the uptake assay)
T1 sequence (P48067 1-706): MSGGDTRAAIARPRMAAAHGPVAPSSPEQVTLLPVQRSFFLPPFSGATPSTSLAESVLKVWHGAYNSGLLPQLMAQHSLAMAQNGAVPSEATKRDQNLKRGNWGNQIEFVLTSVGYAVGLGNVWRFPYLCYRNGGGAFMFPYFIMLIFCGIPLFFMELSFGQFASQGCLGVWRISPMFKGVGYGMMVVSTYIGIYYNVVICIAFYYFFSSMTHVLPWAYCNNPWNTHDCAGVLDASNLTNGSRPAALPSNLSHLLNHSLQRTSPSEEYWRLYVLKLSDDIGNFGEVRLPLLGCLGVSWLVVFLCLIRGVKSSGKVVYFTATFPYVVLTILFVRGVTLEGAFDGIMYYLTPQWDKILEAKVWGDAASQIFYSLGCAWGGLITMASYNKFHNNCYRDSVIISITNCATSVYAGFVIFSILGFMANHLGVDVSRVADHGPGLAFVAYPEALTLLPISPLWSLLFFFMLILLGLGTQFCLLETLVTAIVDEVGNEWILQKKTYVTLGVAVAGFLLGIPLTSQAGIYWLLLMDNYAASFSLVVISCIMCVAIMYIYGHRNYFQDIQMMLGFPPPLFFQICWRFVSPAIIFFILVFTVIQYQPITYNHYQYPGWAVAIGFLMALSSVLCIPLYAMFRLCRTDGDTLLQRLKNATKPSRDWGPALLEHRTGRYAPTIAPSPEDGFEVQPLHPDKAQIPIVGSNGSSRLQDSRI
Kind of experiment: Radioligand binding assay using recombinant CHO cell membranes expressing human GlyT1. An excerpt:
2. Radioligand binding assays using recombinant CHO cell membranes expressing human GlyT1: […]

[1] abbreviates: radioligand binding, recombinant CHO cell membranes expressing human GlyT1c.
Where [2] appears, read: radioligand binding to human GlyT1c transporter-expressing membranes.

pKi: −log10 of the molar value.

For `Cn1cnc(S(=O)(=O)N2C[C@H](Nc3ccc4c(c3)N(Cc3ccccc3)CC4)[C@@H](c3ccccc3)C2)c1` [Example 826, 1-benzyl-N-{(3R,4S)-1-[(1-methyl-1H-imidazol-4-yl)sulfonyl]-4-phenylpyrrolidin-3-yl}-2,3-dihydro-1H-indol-6-amine], the pKi (usually −log10 of the Ki, conventionally taken in molar units) under setting [1] is at least 5.00. Consider `O=S(=O)(c1cccc2cnccc12)N1CC(Nc2ccc(F)c(F)c2)C(c2ccccc2)C1` (stereo not shown) [Example 515, N-(3,4-difluorophenyl)-1-(isoquinolin-5-ylsulfonyl)-4-phenylpyrrolidin-3-amine], for which the negative-log Ki (pKi) under setting [2] was at least 5.00. In the case of `Cn1cnc(S(=O)(=O)N2C[C@@H](Nc3ccc(F)c(Cl)c3)[C@H](c3cccc(F)c3)C2)c1` (relative stereo) [Example 194, trans-N-(3-chloro-4-fluorophenyl)-4-(3-fluorophenyl)-1-[(1-methyl-1H-imidazol-4-yl)sulfonyl]pyrrolidin-3-amine], the pKi under setting [2] is at least 7.00.

Regarding `Cc1nc(S(=O)(=O)N2C[C@H](Nc3ccc(F)c(F)c3)[C@@H](c3ccc(F)cc3)C2)cn1C` [Example 755, (3R,4S)-N-(3,4-difluorophenyl)-1-[(1,2-dimethyl-1H-imidazol-4-yl)sulfonyl]-4-(4-fluorophenyl)pyrrolidin-3-amine], the negative logarithm of the Ki (pKi) under setting [2] is at most 5.00. For the molecule `N#Cc1cccc(N[C@@H]2CN(S(=O)(=O)CC3CC3)C[C@H]2c2ccccc2)c1` (relative stereo) [Example 133, 3-({trans-1-[(cyclopropylmethyl)sulfonyl]-4-phenylpyrrolidin-3-yl}amino)benzonitrile], the pKi under setting [2] was at least 5.00. With `COC(=O)c1csc(S(=O)(=O)N2CC(Nc3ccc(F)c(F)c3)C(c3ccccc3)C2)c1OC` (stereo not shown) [Example 491, methyl 5-({3-[(3,4-difluorophenyl)amino]-4-phenylpyrrolidin-1-yl}sulfonyl)-4-methoxythiophene-3-carboxylate], the pKi under setting [2] is at least 5.00. On the same count and under the same terms, in the case of `Cn1cnc(S(=O)(=O)N2C[C@@H](Nc3ccccn3)[C@H](c3ccccc3)C2)c1` (relative stereo) [Example 207, N-{trans-1-[(1-methyl-1H-imidazol-4-yl)sulfonyl]-4-phenylpyrrolidin-3-yl}pyridin-2-amine] it was at least 5.00.

`Cn1cnc(S(=O)(=O)N2C[C@@H](Nc3cccc(C(F)(F)F)c3)[C@H](C3CCOC3)C2)c1` (relative stereo) [Example 827, trans-1-[(1-methyl-1H-imidazol-4-yl)sulfonyl]-4-(tetrahydrofuran-3-yl)-N-[3 - (trifluoromethyl)phenyl]pyrrolidin-3-amine]: the pKi under setting [1] is at least 6.00. As for `CC(CN[C@H]1CN(S(=O)(=O)c2cn(C)cn2)C[C@@H]1c1ccccc1)C(F)(F)F` (stereo partly drawn) [Example 566, (3R,4S)-1-[(1-methyl-1H-imidazol-4-yl)sulfonyl]-4-phenyl-N-(3,3,3-trifluoro-2-methylpropyl)pyrrolidin-3-amine], under setting [2], the pKi was at least 5.00.

Take `Cn1cnc(S(=O)(=O)N2C[C@@H](NC(=O)c3ccc(C#N)cc3)[C@H](c3ccccc3)C2)c1` (relative stereo) [Example 34, 4-cyano-N-{trans-1-[(1-methyl-1H-imidazol-4-yl)sulfonyl]-4-phenylpyrrolidin-3-yl} benzamide]: the pKi under setting [2] was at least 5.00. Turning to `Cn1cnc(S(=O)(=O)N2C[C@@H](Nc3cc(F)ccc3F)[C@H](c3ccccc3)C2)c1` (relative stereo) [Example 232, trans-N-(2,5-difluorophenyl)-1-[(1-methyl-1H-imidazol-4-yl)sulfonyl]-4-phenylpyrrolidin-3-amine], the negative logarithm of the Ki (pKi) under setting [2] was at least 5.00. For `Cn1cnc(S(=O)(=O)N2C[C@H](NC(=O)CC3CC3)[C@@H](c3ccccc3)C2)c1` [Example 546, 2-cyclopropyl-N-{(3R,4S)-1-[(1-methyl-1H-imidazol-4-yl)sulfonyl]-4-phenylpyrrolidin-3-yl}acetamide], under setting [2], the pKi is at most 5.00. Regarding `CC(=O)Nc1ncc(S(=O)(=O)N2CC(Nc3ccc(F)c(F)c3)C(c3ccccc3)C2)s1` (stereo not shown) [Example 499, N-[5-({3-[(3,4-difluorophenyl)amino]-4-phenylpyrrolidin-1-yl}sulfonyl)-1,3-thiazol-2-yl]acetamide], under setting [2], the pKi is at most 5.00. Consider `Cc1nc(-c2ccccc2)sc1CN[C@H]1CN(S(=O)(=O)c2cn(C)cn2)C[C@@H]1c1ccccc1` [Example 473, (3R,4S)-1-[(1-methyl-1H-imidazol-4-yl)sulfonyl]-N-[(4-methyl-2-phenyl-1,3-thiazol-5-yl)methyl]-4-phenylpyrrolidin-3-amine], for which, under setting [2], the negative logarithm of the Ki (pKi) is at least 7.00.

For the molecule `Cn1cnc(S(=O)(=O)N2C[C@@H](NC(=O)c3cc(Cl)cc(Cl)c3)[C@H](c3ccc(F)cc3)C2)c1` (relative stereo) [Example 65, 3,5-dichloro-N-{trans-4-(4-fluorophenyl)-1-[(1-methyl-1H-imidazol-4-yl)sulfonyl]pyrrolidin-3-yl}benzamide], the pKi under setting [2] is at least 6.00. For the molecule `Cn1cnc(S(=O)(=O)N2C[C@@H](Nc3ccc(F)c(Cl)c3)[C@H](c3ccc(F)cc3)C2)c1` (relative stereo) [Example 160, trans-N-(3-chloro-4-fluorophenyl)-4-(4-fluorophenyl)-1-[(1-methyl-1H-imidazol-4-yl)sulfonyl]pyrrolidin-3-amine], under setting [2], the pKi was at least 8.00. The same measure, in the same setting: under `Cn1cnc(S(=O)(=O)N2C[C@H](Nc3cc(F)ccn3)[C@@H](c3ccccc3)C2)c1` [Example 405, 4-fluoro-N-{(3R,4S)-1-[(1-methyl-1H-imidazol-4-yl)sulfonyl]-4-phenylpyrrolidin-3-yl}pyridin-2-amine] stands at least 6.00; under `Cn1cnc(S(=O)(=O)N2C[C@H](c3ccccc3)[C@H](NCc3ccccc3)C2)c1` (relative stereo) [Example 157, (cis)-N-benzyl-1-[(1-methyl-1H-imidazol-4-yl)sulfonyl]-4-phenylpyrrolidin-3-amine], at least 5.00.

With `CCCNC(=O)CO[C@@H]1CN(S(=O)(=O)c2cn(C)cn2)C[C@H]1c1ccc(F)cc1` (relative stereo) [Example 689, 2-({Trans-4-(4-fluorophenyl)-1-[(1-methyl-1H-imidazol-4-yl)sulfonyl]pyrrolidin-3-yl}oxy)-N-propylacetamide], the pKi under setting [2] is at least 6.00. Still for that read-out and setting: under `Cn1cnc(S(=O)(=O)N2C[C@H](NCCCCC(C)(F)F)[C@@H](c3ccc(F)cc3)C2)c1` [Example 739, (3R,4S)-N-(5,5-difluorohexyl)-4-(4-fluorophenyl)-1-[(1-methyl-1H-imidazol-4-yl)sulfonyl]pyrrolidin-3-amine] stands at least 7.00; under `Cn1cnc(S(=O)(=O)N2C[C@@H](Nc3ccc4ncccc4c3)[C@H](c3ccccc3)C2)c1` (relative stereo) [Example 229, N-{trans-1-[(1-methyl-1H-imidazol-4-yl)sulfonyl]-4-phenylpyrrolidin-3-yl}quinolin-6-amine], at least 5.00; under `Cn1cnc(S(=O)(=O)N2C[C@H](Nc3cccc(C(F)(F)F)n3)[C@@H](c3ccc(F)cc3)C2)c1` [Example 351, N-{(3R,4S)-4-(4-fluorophenyl)-1-[(1-methyl-1H-imidazol-4-yl)sulfonyl]pyrrolidin-3-yl}-6-(trifluoromethyl)pyridin-2-amine], at least 6.00.

Take `Cn1cnc(S(=O)(=O)N2C[C@@H](C(=O)Nc3ccc(F)c(C(F)(F)F)c3)[C@H](c3ccc(F)cc3)C2)c1` (relative stereo) [Example 274, trans-4-(4-fluorophenyl)-N-[4-fluoro-3-(trifluoromethyl)phenyl]-1-[(1-methyl-1H-imidazol-4-yl)sulfonyl]pyrrolidine-3-carboxamide]: the pKi under setting [2] is at least 7.00. Turning to `CCOCCNC(=O)[C@@H]1CN(S(=O)(=O)c2cn(C)cn2)C[C@H]1c1ccc(F)cc1` [Example 584, (3S,4R)-N-(2-ethoxyethyl)-4-(4-fluorophenyl)-1-[(1-methyl-1H-imidazol-4-yl)sulfonyl]pyrrolidine-3-carboxamide], under setting [2], the pKi is at least 5.00. Consider `CCCCCN[C@H]1CN(S(=O)(=O)c2cn(C)cn2)C[C@@H]1c1ccc(F)cc1` [Example 664, (3R,4S)-4-(4-fluorophenyl)-1-[(1-methyl-1H-imidazol-4-yl)sulfonyl]-N-pentylpyrrolidin-3-amine], for which the pKi under setting [2] is at least 7.00. As to `Cn1cc(S(=O)(=O)N2C[C@H](Nc3cccc(OC(F)(F)F)c3)[C@@H](c3ccc(F)cc3)C2)nn1` [Example 837, (3R,4S)-4-(4-fluorophenyl)-1-[(1-methyl-1H-1,2,3-triazol-4-yl)sulfonyl]-N-[3-(trifluoromethoxy)phenyl]pyrrolidin-3-amine], the negative-log Ki (pKi) under setting [1] was at least 8.00. Turning to `O=C1Cc2cc(S(=O)(=O)N3CC(Nc4ccc(F)c(F)c4)C(c4ccccc4)C3)ccc2N1` (stereo not shown) [Example 507, 5-({3-[(3,4-difluorophenyl)amino]-4-phenylpyrrolidin-1-yl}sulfonyl)-1,3-dihydro-2H-indol-2-one], the pKi under setting [2] was at least 5.00. The same measure, in the same setting: in the case of `Cn1cnc(S(=O)(=O)N2C[C@@H](NCc3ccc(Cl)cc3Cl)[C@H](c3cccnc3)C2)c1` (relative stereo) [Example 286, trans-N-(2,4-dichlorobenzyl)-1-[(1-methyl-1H-imidazol-4-yl)sulfonyl]-4-(pyridin-3-yl)pyrrolidin-3-amine] it was at least 5.00.
